# From article PMC9363195, “Preclinical Pharmacokinetics, Biodistribution, and Acute Toxicity Evaluation of Caerin 1.9 Peptide in Sprague Dawley Rats” (Evidence-based Complementary and Alternative Medicine : eCAM, 2022)
# Peptide text beside a SMILES is read from it.
# Tested on: SD rats
# Test: Gross necropsy and weight of vital organs in acute toxicity study
# Assay type: in vivo, Sprague Dawley rats
# Settings: for Adrenals, absolute weight / Body weight / Brain, absolute weight / Heart, absolute weight / Kidneys, absolute weight / Liver, absolute weight / Ovaries, absolute weight / Spleen, absolute weight / Thymus, absolute weight / Thyroid, absolute weight / Uterus, absolute weight / Epididymides, absolute weight / Testis, absolute weight: day 15, mean ± SD
# Experimental: Forty SD rats (20 males and 20 females) were randomly divided into 4 groups (Figure 1). All rats were given F3 once on the day of the experiment.
# Twelve SD rats (6 males, 6 females) were given a daily subcutaneous injection of F3 at a dose of 10.0 mg/kg for consecutive 14 days. The first day of administration was recorded as day 1.
# For 14 days, the body weight was measured before F3 administration on the first day of the experiment and once a week thereafter, with additional measurements on the day before and on the day of the planned autopsy. Food intake was recorded once a week. The rats were anesthetized by inhalation of 70% CO2/30% O2 before dissection, and blood samples were taken for hematology and biochemical analysis. The collected tissue was weighed and preserved for pathological examination.
# After blood was collected at the predetermined time points, all rats were euthanized and subjected to a comprehensive general autopsy, which included a thorough examination of the external surface of the body, all foramen, cranial cavity, external surface of the brain, chest, abdomen, pelvic cavity, viscera, cervix, and genitalia. The adrenal gland, brain (brain, cerebellum, and brain stem), epididymis, heart, kidney, liver, ovary, spleen, testis, thymus, thyroid gland, and uterus were carefully collected, weighed, and documented before being kept in 10% neutral formalin buffer (10% NBF).
# [1] = female SD rats, s.c. 10.0 mg/kg daily x14 d, n=6
# [2] = female SD rats, single s.c. 1.0 mg/kg, n=5
# [3] = female SD rats, single s.c. 10.0 mg/kg, n=5
# [4] = female SD rats, single s.c. 100.0 mg/kg, n=5
# [5] = male SD rats, s.c. 10.0 mg/kg daily x14 d, n=6
# [6] = male SD rats, single s.c. 1.0 mg/kg, n=5
# [7] = male SD rats, single s.c. 10.0 mg/kg, n=5
# [8] = male SD rats, single s.c. 100.0 mg/kg, n=5
smiles,measurement,setting,value
"CC[C@H](C)[C@H](NC(=O)[C@H](CO)NC(=O)CNC(=O)[C@H](CC(C)C)NC(=O)[C@@H](NC(=O)CNC(=O)[C@H](Cc1ccccc1)NC(=O)[C@H](CC(C)C)NC(=O)CN)C(C)C)C(=O)N[C@@H](C)C(=O)N[C@@H](CCCCN)C(=O)N[C@@H](Cc1c[nH]cn1)C(=O)N[C@H](C(=O)N[C@@H](CC(C)C)C(=O)N1CCC[C@H]1C(=O)N[C@@H](Cc1c[nH]cn1)C(=O)N[C@H](C(=O)N[C@H](C(=O)N1CCC[C@H]1C(=O)N[C@H](C(=O)N[C@H](C(=O)N[C@@H](C)C(=O)N[C@@H](CCC(=O)O)C(=O)N[C@@H](CCCCN)C(=O)N[C@@H](CC(C)C)C(N)=O)[C@@H](C)CC)C(C)C)C(C)C)C(C)C)C(C)C [F3, Caerin 1.9] (H-GLFGVLGSIAKHVLPHVVPVIAEKL-NH2)",gross necropsy findings,"SD rats, s.c. 10.0 mg/kg daily x14 d, all rats",diffuse subcutaneous bleeding at the injection site
same,influence on absolute and relative organ weight,"SD rats, single or repeated s.c. injections",no influence
same,gross necropsy findings,"SD rats, single s.c. 100.0 mg/kg",skin scab and thickening at the administration site in all male rats and four female rats
same,"Adrenals, absolute weight",[1],0.0793 ± 0.0101 g
same,Body weight,[1],233.55 ± 16.03 g
same,"Brain, absolute weight",[1],1.9517 ± 0.0244 g
same,"Heart, absolute weight",[1],1.1247 ± 0.1287 g
same,"Kidneys, absolute weight",[1],1.7017 ± 0.123 g
same,"Liver, absolute weight",[1],7.5278 ± 0.6229 g
same,"Ovaries, absolute weight",[1],0.093 ± 0.0151 g
same,"Spleen, absolute weight",[1],0.6908 ± 0.0750 g
same,"Thymus, absolute weight",[1],0.427 ± 0.0886 g
same,"Thyroid, absolute weight",[1],0.0242 ± 0.0053 g
same,"Uterus, absolute weight",[1],0.4797 ± 0.1336 g
same,"Adrenals, absolute weight",[2],0.0728 ± 0.0097 g
same,Body weight,[2],238.86 ± 7.94 g
same,"Brain, absolute weight",[2],2.0504 ± 0.0552 g
same,"Heart, absolute weight",[2],1.1086 ± 0.1559 g
same,"Kidneys, absolute weight",[2],1.9364 ± 0.118 g
same,"Liver, absolute weight",[2],7.7464 ± 0.2893 g
same,"Ovaries, absolute weight",[2],0.1036 ± 0.0242 g
same,"Spleen, absolute weight",[2],0.57 ± 0.1214 g
same,"Thymus, absolute weight",[2],0.5216 ± 0.0746 g
same,"Thyroid, absolute weight",[2],0.0282 ± 0.0029 g
same,"Uterus, absolute weight",[2],0.6212 ± 0.0948 g
same,"Adrenals, absolute weight",[3],0.0758 ± 0.0114 g
same,Body weight,[3],243.48 ± 10.53 g
same,"Brain, absolute weight",[3],2.0232 ± 0.044 g
same,"Heart, absolute weight",[3],0.999 ± 0.0943 g
same,"Kidneys, absolute weight",[3],1.8596 ± 0.1438 g
same,"Liver, absolute weight",[3],7.3692 ± 0.709 g
same,"Ovaries, absolute weight",[3],0.096 ± 0.0182 g
same,"Spleen, absolute weight",[3],0.5508 ± 0.0854 g
same,"Thymus, absolute weight",[3],0.535 ± 0.0762 g
same,"Thyroid, absolute weight",[3],0.0338 ± 0.005 g
same,"Uterus, absolute weight",[3],0.4664 ± 0.1167 g
same,"Adrenals, absolute weight",[4],0.076 ± 0.0116 g
same,Body weight,[4],238.86 ± 9.44 g
same,"Brain, absolute weight",[4],1.9918 ± 0.0665 g
same,"Heart, absolute weight",[4],1.0914 ± 0.0821 g
same,"Kidneys, absolute weight",[4],1.924 ± 0.0685 g
same,"Liver, absolute weight",[4],7.8582 ± 0.5028 g
same,"Ovaries, absolute weight",[4],0.108 ± 0.0223 g
same,"Spleen, absolute weight",[4],0.545 ± 0.0571 g
same,"Thymus, absolute weight",[4],0.478 ± 0.0725 g
same,"Thyroid, absolute weight",[4],0.0344 ± 0.0057 g
same,"Uterus, absolute weight",[4],0.5842 ± 0.0922 g
same,"Adrenals, absolute weight",[5],0.0612 ± 0.0041 g
same,Body weight,[5],342.57 ± 13.86 g
same,"Brain, absolute weight",[5],2.062 ± 0.1162 g
same,"Epididymides, absolute weight",[5],1.0408 ± 0.0584 g
same,"Heart, absolute weight",[5],1.5727 ± 0.082 g
same,"Kidneys, absolute weight",[5],2.5043 ± 0.0600 g
same,"Liver, absolute weight",[5],9.9218 ± 0.6297 g
same,"Spleen, absolute weight",[5],0.741 ± 0.1802 g
same,"Testis, absolute weight",[5],3.3857 ± 0.1596 g
same,"Thymus, absolute weight",[5],0.4433 ± 0.0724 g
same,"Thyroid, absolute weight",[5],0.0358 ± 0.0092 g
same,"Adrenals, absolute weight",[6],0.0564 ± 0.0078 g
same,Body weight,[6],380.74 ± 8.63 g
same,"Brain, absolute weight",[6],2.163 ± 0.0999 g
same,"Epididymides, absolute weight",[6],0.9464 ± 0.0677 g
same,"Heart, absolute weight",[6],1.485 ± 0.1408 g
same,"Kidneys, absolute weight",[6],2.8174 ± 0.3469 g
same,"Liver, absolute weight",[6],11.4326 ± 0.5122 g
same,"Spleen, absolute weight",[6],0.7378 ± 0.14 g
same,"Testis, absolute weight",[6],3.328 ± 0.2025 g
same,"Thymus, absolute weight",[6],0.545 ± 0.1054 g
same,"Thyroid, absolute weight",[6],0.0494 ± 0.0051 g
same,"Adrenals, absolute weight",[7],0.0654 ± 0.0073 g
same,Body weight,[7],397.34 ± 21.46 g
same,"Brain, absolute weight",[7],2.181 ± 0.1198 g
same,"Epididymides, absolute weight",[7],0.9564 ± 0.0348 g
same,"Heart, absolute weight",[7],1.728 ± 0.2013 g
same,"Kidneys, absolute weight",[7],3.151 ± 0.1131 g
same,"Liver, absolute weight",[7],12.5468 ± 0.8106 g
same,"Spleen, absolute weight",[7],0.8204 ± 0.1012 g
same,"Testis, absolute weight",[7],3.2666 ± 0.0813 g
same,"Thymus, absolute weight",[7],0.6256 ± 0.1022 g
same,"Thyroid, absolute weight",[7],0.0498 ± 0.0093 g
same,"Adrenals, absolute weight",[8],0.066 ± 0.0075 g
same,Body weight,[8],394.58 ± 14.44 g
same,"Brain, absolute weight",[8],2.1528 ± 0.0816 g
same,"Epididymides, absolute weight",[8],0.9956 ± 0.0459 g
same,"Heart, absolute weight",[8],1.6352 ± 0.0401 g
same,"Kidneys, absolute weight",[8],2.9858 ± 0.1294 g
same,"Liver, absolute weight",[8],12.2242 ± 0.7073 g
same,"Spleen, absolute weight",[8],0.793 ± 0.109 g
same,"Testis, absolute weight",[8],3.4182 ± 0.3029 g
same,"Thymus, absolute weight",[8],0.6608 ± 0.082 g
same,"Thyroid, absolute weight",[8],0.0482 ± 0.0075 g
